For the assay, the system named is dcLVs. To be noted: mouse, in vivo.

Consider 2 compounds from patent US20240207362A1 (priority 2022, published 2024).

Molecules are shown by their SMILES. Entries after “also recorded” stand apart in the source; their conditions may differ.

As for `CNC[C@H](O)c1cccc(O)c1` [phenylephrine], the “amount of CSF tracer (in dcLV)” value is listed as “decreased” and the “contraction or dilation of dcLVs” value is “contracts; also recorded: dosage dependent contraction”.
Regarding `[Cl-].[K+]` [potassium chloride], the “contraction of dcLVs” value is “strongly but transiently contracted”.
